Measurements published in article PMC10098121, “Amphipathic barbiturates as marine product mimics with cytolytic and immunogenic effects on head and neck squamous cell carcinoma cell lines” (Frontiers in Pharmacology, 2023).

Each compound was assayed on human red blood cells (assay: Hemolysis assay). Conditions: Homo sapiens, Erythrocyte; 1 h, 37°C; highest concentration tested 500 μM; average of three experiments; read-out: EC50 hemolytic activity against human red blood cells.
Type: cell-based
Procedure: The hemolytic effect of the MPMs was determined using a hemolysis assay as previously described ([Paulsen et al., 2021]). Briefly, hemolysis was determined using a heparinized fraction (10 IU/mL) of freshly drawn blood. The blood collected in ethylenediaminetetraacetic acid-containing test tubes (Vacutest, KIMA, Arzergrande, Italy) was used for the determination of the hematocrit (hct). The heparinized blood was washed 3 × with pre-warmed phosphate-buffered saline (PBS) and adjusted to a final hct of 4%. MPMs in DMSO (50 mM) were added to a 96-well polypropylene V-bottom plate (NUNC, Fisher Scientific, Oslo, Norway) and serially diluted. The test concentration range was 4–500 μM with DMSO contents ≤1%. A solution of 1% triton X-100 was used as a positive control for 100% hemolysis. As a negative control, a solution of 1% DMSO in PBS was included. Red blood cells (1% v/v final concentration) were added to the well plate and incubated at 37°C and 800 rpm for 1 h. After centrifugation (5 min, 3000 g), 100 μL from each well was transferred to a 96-well flat-bottomed microtiter plate, and absorbance was measured at 545 nm with a microplate reader (VersaMaxTM, Molecular Devices, Sunnyvale, CA, United States). The percentage of hemolysis was calculated as the ratio of the absorbance in the MPM treated and surfactant-treated samples, corrected for the PBS background. Three independent experiments were performed, and EC50 values are presented as averages.

SMILES | EC50
NCCCN1C(=O)N(CCCN)C(=O)C(CCCc2ccccc2)(CCCc2ccccc2)C1=O [MPM-3:0] | > 500 µM
CNCCCCN1C(=O)N(CCCCNC)C(=O)C(CCCc2ccccc2)(CCCc2ccccc2)C1=O [MPM-4:1] | > 500 µM

What follows are compounds tested on HSC-3 (assay: High throughput drug screening (CellTiter-Glo, DSS)). Conditions: HSC-3, 72 h, 10-100,000 nM, myogel, non-irradiated.
Type: cell-based, human
Procedure: (§1) The MPMs were screened against a panel of […] different cell lines (HSC-3, UT-SCC-8, UT-SCC-24A, UT-SCC-24B, UT-SCC-42A, UT-SCC-42B and NOF) at the High Throughput Biomedicine Unit (HTB) at the Institute for Molecular Medicine Finland (FIMM). On day 1, black-walled 384-well plates were coated with 5 µl diluted myogel (0.5 mg/ml) per well using an automated reagent dispenser (MultiFlo FX, BioTek, Winooski, VT, United States). On day 2, 500 cells per well were seeded in 20 µl of complete media using the MultiFlo FX (BioTek), and the cells were left to adhere overnight. On day 3, the MPMs, cisplatin, DMSO and Benzethonium chloride were added to the cells using an automatic liquid handler (Echo 550, Labcyte Inc., San Jose, CA, United States). Cisplatin and the MPMs were added to yield five different concentrations in a ten-fold dilution series ranging from 10 to 100,000 nM. Each concentration was tested in triplicate wells. DMSO (0.1%) and benzethonium chloride (100 µM) served as negative and positive control, respectively. Three hours later, some of the plates were irradiated with 2 Gy in a gamma irradiator (OB29/4, STS, Braunschweig, Germany). All plates were taken to the irradiation room to ensure similar handling of the plates. 72 h later, the plates were cooled to room temperature before 25 µl of CellTiter-Glo 2.0 reagent (Promega, Madison, WI, USA) was added to each well using the MultiFlo FX (BioTek). Next, the plates were centrifuged for 5 min at 1,000 rpm before the luminescence signal was measured with the PHERAstar FS HT reader (BMG LABTECH GmbH, Ortenberg, Germany). The raw data was analyzed with the Breeze software (https://breeze.fmm.fi), which normalized the luminescence signal from treated cells against the signal from negative and positive control cells to calculate the percentage of inhibition and generate dose-response curves, which were then used to calculate drug sensitivity scores (DSS). The DSS is a parameter which combines the IC50, the slope of the dose-response curve, and the minimum and maximum responses into a single metric, as previously described ([Yadav et al., 2014]). Quality control was performed by calculation of the Z′-factor, which was >0.7 for all cell lines, indicating high quality of the assay ([Zhang et al., 1999]).

SMILES | drug sensitivity score (DSS)
NCCCN1C(=O)N(CCCN)C(=O)C(CCCc2ccccc2)(CCCc2ccccc2)C1=O [MPM-3:0] | 16,1
CNCCCCN1C(=O)N(CCCCNC)C(=O)C(CCCc2ccccc2)(CCCc2ccccc2)C1=O [MPM-4:1] | 14,8

Same assay, conditions: HSC-3; DSS irradiated (2 Gy) minus DSS non-irradiated; >5 synergy, <–5 antagonism

SMILES | delta DSS (ΔDSS)
NCCCN1C(=O)N(CCCN)C(=O)C(CCCc2ccccc2)(CCCc2ccccc2)C1=O [MPM-3:0] | 0
CNCCCCN1C(=O)N(CCCCNC)C(=O)C(CCCc2ccccc2)(CCCc2ccccc2)C1=O [MPM-4:1] | -0,4

These compounds were tested on NOF (normal oral fibroblasts) in the same assay as above. Conditions: 72 h, 10-100,000 nM, myogel, non-irradiated.
Type: cell-based, human
Procedure: as §1

SMILES | drug sensitivity score (DSS)
NCCCN1C(=O)N(CCCN)C(=O)C(CCCc2ccccc2)(CCCc2ccccc2)C1=O [MPM-3:0] | 18,3
CNCCCCN1C(=O)N(CCCCNC)C(=O)C(CCCc2ccccc2)(CCCc2ccccc2)C1=O [MPM-4:1] | 18,5

Same assay, conditions: DSS irradiated (2 Gy) minus DSS non-irradiated, >5 synergy, <–5 antagonism

SMILES | delta DSS (ΔDSS)
NCCCN1C(=O)N(CCCN)C(=O)C(CCCc2ccccc2)(CCCc2ccccc2)C1=O [MPM-3:0] | -0,6
CNCCCCN1C(=O)N(CCCCNC)C(=O)C(CCCc2ccccc2)(CCCc2ccccc2)C1=O [MPM-4:1] | -0,8

What follows are compounds tested on UT-SCC-106A in the same assay as above. Conditions: 72 h, 10-100,000 nM, myogel, non-irradiated.
Type: cell-based, human
Procedure: as §1

SMILES | drug sensitivity score (DSS)
NCCCN1C(=O)N(CCCN)C(=O)C(CCCc2ccccc2)(CCCc2ccccc2)C1=O [MPM-3:0] | 17,1
CNCCCCN1C(=O)N(CCCCNC)C(=O)C(CCCc2ccccc2)(CCCc2ccccc2)C1=O [MPM-4:1] | 15,8

Same assay, conditions: DSS irradiated (2 Gy) minus DSS non-irradiated, >5 synergy, <–5 antagonism

SMILES | delta DSS (ΔDSS)
NCCCN1C(=O)N(CCCN)C(=O)C(CCCc2ccccc2)(CCCc2ccccc2)C1=O [MPM-3:0] | -0,6
CNCCCCN1C(=O)N(CCCCNC)C(=O)C(CCCc2ccccc2)(CCCc2ccccc2)C1=O [MPM-4:1] | -0,8

These compounds were tested on UT-SCC-24A in the same assay as above. Conditions: 72 h, 10-100,000 nM, myogel, non-irradiated.
Type: cell-based, human
Procedure: as §1

SMILES | drug sensitivity score (DSS)
NCCCN1C(=O)N(CCCN)C(=O)C(CCCc2ccccc2)(CCCc2ccccc2)C1=O [MPM-3:0] | 14,3
CNCCCCN1C(=O)N(CCCCNC)C(=O)C(CCCc2ccccc2)(CCCc2ccccc2)C1=O [MPM-4:1] | 15,5

Same assay, conditions: DSS irradiated (2 Gy) minus DSS non-irradiated, >5 synergy, <–5 antagonism

SMILES | delta DSS (ΔDSS)
NCCCN1C(=O)N(CCCN)C(=O)C(CCCc2ccccc2)(CCCc2ccccc2)C1=O [MPM-3:0] | -1,8
CNCCCCN1C(=O)N(CCCCNC)C(=O)C(CCCc2ccccc2)(CCCc2ccccc2)C1=O [MPM-4:1] | -1,6

These compounds were tested on UT-SCC-24B in the same assay as above. Conditions: 72 h, 10-100,000 nM, myogel, non-irradiated.
Type: cell-based, human
Procedure: as §1

SMILES | drug sensitivity score (DSS)
NCCCN1C(=O)N(CCCN)C(=O)C(CCCc2ccccc2)(CCCc2ccccc2)C1=O [MPM-3:0] | 18
CNCCCCN1C(=O)N(CCCCNC)C(=O)C(CCCc2ccccc2)(CCCc2ccccc2)C1=O [MPM-4:1] | 16,4

Same assay, conditions: DSS irradiated (2 Gy) minus DSS non-irradiated, >5 synergy, <–5 antagonism

SMILES | delta DSS (ΔDSS)
NCCCN1C(=O)N(CCCN)C(=O)C(CCCc2ccccc2)(CCCc2ccccc2)C1=O [MPM-3:0] | -0,6
CNCCCCN1C(=O)N(CCCCNC)C(=O)C(CCCc2ccccc2)(CCCc2ccccc2)C1=O [MPM-4:1] | -0,5

The compounds below were run on UT-SCC-42A in the same assay as above. Conditions: 72 h, 10-100,000 nM, myogel, non-irradiated.
Type: cell-based, human
Procedure: as §1

SMILES | drug sensitivity score (DSS)
NCCCN1C(=O)N(CCCN)C(=O)C(CCCc2ccccc2)(CCCc2ccccc2)C1=O [MPM-3:0] | 11,7
CNCCCCN1C(=O)N(CCCCNC)C(=O)C(CCCc2ccccc2)(CCCc2ccccc2)C1=O [MPM-4:1] | 9,9

Same assay, conditions: DSS irradiated (2 Gy) minus DSS non-irradiated, >5 synergy, <–5 antagonism

SMILES | delta DSS (ΔDSS)
NCCCN1C(=O)N(CCCN)C(=O)C(CCCc2ccccc2)(CCCc2ccccc2)C1=O [MPM-3:0] | -1,1
CNCCCCN1C(=O)N(CCCCNC)C(=O)C(CCCc2ccccc2)(CCCc2ccccc2)C1=O [MPM-4:1] | -0,1

Each compound was assayed on UT-SCC-42B in the same assay as above. Conditions: 72 h, 10-100,000 nM, myogel, non-irradiated.
Type: cell-based, human
Procedure: as §1

SMILES | drug sensitivity score (DSS)
NCCCN1C(=O)N(CCCN)C(=O)C(CCCc2ccccc2)(CCCc2ccccc2)C1=O [MPM-3:0] | 10,1
CNCCCCN1C(=O)N(CCCCNC)C(=O)C(CCCc2ccccc2)(CCCc2ccccc2)C1=O [MPM-4:1] | 10,2

Same assay, conditions: DSS irradiated (2 Gy) minus DSS non-irradiated, >5 synergy, <–5 antagonism

SMILES | delta DSS (ΔDSS)
NCCCN1C(=O)N(CCCN)C(=O)C(CCCc2ccccc2)(CCCc2ccccc2)C1=O [MPM-3:0] | -0,1
CNCCCCN1C(=O)N(CCCCNC)C(=O)C(CCCc2ccccc2)(CCCc2ccccc2)C1=O [MPM-4:1] | -1,1

What follows are compounds tested on UT-SCC-8 in the same assay as above. Conditions: UT-SCC-8, 72 h, 10-100,000 nM, myogel, non-irradiated.
Type: cell-based, human
Procedure: as §1

SMILES | drug sensitivity score (DSS)
NCCCN1C(=O)N(CCCN)C(=O)C(CCCc2ccccc2)(CCCc2ccccc2)C1=O [MPM-3:0] | 16,5
CNCCCCN1C(=O)N(CCCCNC)C(=O)C(CCCc2ccccc2)(CCCc2ccccc2)C1=O [MPM-4:1] | 14,5

Same assay, conditions: UT-SCC-8; DSS irradiated (2 Gy) minus DSS non-irradiated; >5 synergy, <–5 antagonism

SMILES | delta DSS (ΔDSS)
NCCCN1C(=O)N(CCCN)C(=O)C(CCCc2ccccc2)(CCCc2ccccc2)C1=O [MPM-3:0] | -0,6
CNCCCCN1C(=O)N(CCCCNC)C(=O)C(CCCc2ccccc2)(CCCc2ccccc2)C1=O [MPM-4:1] | 0,6

The compounds below were run on Bacillus subtilis 168 (assay: Bacterial minimum inhibitory concentration (broth microdilution)). Conditions: Bacillus subtilis 168, 48 h, 35 °C, di-TFA salts.
Type: cell-based
Procedure: (§2) Method for determination of bacterial minimum inhibitory concentration (MIC) Stock solutions of the water-soluble compounds were prepared by dissolving them in ultrapure water (Milli-Q H2O, Millipore, MA, USA). The less water-soluble compounds were first dissolved in 25 - 50 µL 100% DMSO before further dilution with ultrapure water. The DMSO concentration was always less than 1% in the working concentration of each compound. A modified broth microdilution susceptibility test based on the CLSI M07-A9 protocol, [2] was used to determine minimal inhibitory concentrations (MIC). Briefly, the test compounds were two-fold diluted with ultrapure water in polystyrene 96-well flat-bottom microplates (NUNC, Roskilde, Denmark). The bacterial inoculum was diluted to 2.5 - 3 x 10^4 cells/mL in Mueller-Hinton broth (MHB, Difco Laboratories, USA) and added to the different diluted compounds in a ratio of 1:1. Positive control (ciprofloxacin, Sigma-Aldrich, USA), negative control (bacteria + water), and media control (media + water) were included in each experiment. The microplates were incubated for 48 h at 35 °C in an EnVision microplate reader (PerkinElmer, Waltham, MA, USA). The lowest concentration of compounds that caused no bacterial growth, as determined by optical density (OD600) measurements, was defined as the MIC value. All compounds were tested in 3 technical replicates.
(§3) Supplementary Video S1. HSC-3 cells were seeded at 100% confluence and a standard scratch wound migration assay was performed. The cells were imaged every 2 hours for 24 hours. The video

SMILES | MIC
NCCCN1C(=O)N(CCCN)C(=O)C(CCCc2ccccc2)(CCCc2ccccc2)C1=O [MPM-3:0] | 16 µg/mL
CNCCCCN1C(=O)N(CCCCNC)C(=O)C(CCCc2ccccc2)(CCCc2ccccc2)C1=O [MPM-4:1] | 8 µg/mL

These compounds were tested on Escherichia coli ATCC 25922 in the same assay as above. Conditions: ATCC25922; Escherichia coli ATCC 25922, 48 h, 35 °C, di-TFA salts.
Type: cell-based
Procedure: as §2, §3

SMILES | MIC
NCCCN1C(=O)N(CCCN)C(=O)C(CCCc2ccccc2)(CCCc2ccccc2)C1=O [MPM-3:0] | 64 µg/mL
CNCCCCN1C(=O)N(CCCCNC)C(=O)C(CCCc2ccccc2)(CCCc2ccccc2)C1=O [MPM-4:1] | > 64 µg/mL

What follows are compounds tested on Pseudomonas aeruginosa ATCC 27853 in the same assay as above. Conditions: ATCC27853; Pseudomonas aeruginosa ATCC 27853, 48 h, 35 °C, di-TFA salts.
Type: cell-based
Procedure: as §2, §3

SMILES | MIC
NCCCN1C(=O)N(CCCN)C(=O)C(CCCc2ccccc2)(CCCc2ccccc2)C1=O [MPM-3:0] | 64 µg/mL
CNCCCCN1C(=O)N(CCCCNC)C(=O)C(CCCc2ccccc2)(CCCc2ccccc2)C1=O [MPM-4:1] | > 64 µg/mL

These compounds were tested on Staphylococcus aureus ATCC 9144 in the same assay as above. Conditions: ATCC9144; Staphylococcus aureus ATCC 9144, 48 h, 35 °C, di-TFA salts.
Type: cell-based
Procedure: as §2, §3

SMILES | MIC
NCCCN1C(=O)N(CCCN)C(=O)C(CCCc2ccccc2)(CCCc2ccccc2)C1=O [MPM-3:0] | 32 µg/mL
CNCCCCN1C(=O)N(CCCCNC)C(=O)C(CCCc2ccccc2)(CCCc2ccccc2)C1=O [MPM-4:1] | 32 µg/mL
